Laboratory results from patent US20170305943A1, “COMPOUNDS FOR THE TREATMENT OF BACTERIAL INFECTIONS” (priority 2014, published 2017).
In brackets after ≈: the same amount, converted by molar mass.

Columns and labels:
Experiment in all cases: Bacterial Assay: Determination of Antibacterial Activity (MIC, broth microdilution or agar dilution)
Assay type in all cases: cell-based
[1] = test system: Clostridium difficile (Isolate ID 027-01); conditions: Clostridioides difficile, 48 h, read-out: MIC (μg/mL) C. difficile (027-01)
In short: (§1)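 MICs were set by CLSI broth microdilution or agar dilution for anaerobes, read visually after 48 hours at 37° C. under anaerobic gas packs. Medium was reinforced clostridial medium with 0.1% defibrinated horse blood; values are binned as A ≦1.01, B >1.0-4.0, C >4.0-16 μg/mL.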

[2] = test system: Clostridium difficile (Isolate ID ATCC 9689); conditions: Clostridioides difficile, ATCC9689, 48 h, read-out: C. difficile MIC Activity Range
In short: as §1

[3] = test system: Clostridium difficile (Isolate ID BI-9); conditions: Clostridioides difficile, 48 h, read-out: MIC (μg/mL) C. difficile (B-I9)
In short: as §1

NC(=O)c1c(F)ccc(OCCCCCOc2ccc(C(F)(F)F)cc2)c1F [Compound 132, 2,6-difluoro-3-({5-[4 (trifluoromethyl)phenoxy]pentyl}oxy) benzamide]
MIC [1]: 0.25 µg/mL (≈ 0.62 µM) | MIC [2]: < 1.01 µg/mL | MIC [3]: 0.5 µg/mL (≈ 1.24 µM)

NC(=O)c1c(F)ccc(OCCOCCOc2ccc(S(F)(F)(F)(F)F)cc2)c1F [Compound 161, 2,6-difluoro-3-(2-{2-[4-(pentafluoro-lambda~6~-sulfanyl)phenoxy]ethoxy}ethoxy)benzamide]
MIC [1]: 2 µg/mL (≈ 4.32 µM) | MIC [2]: < 1.01 µg/mL | MIC [3]: 1 µg/mL (≈ 2.16 µM)

NC(=O)c1c(F)ccc(OCc2nc(-c3ccc(C(F)(F)F)cc3)c(Br)o2)c1F [Compound 208, 3-({5-bromo-4-[4-(trifluoromethyl)phenyl]-1,3-oxazol-2-yl}methoxy)-2,6-difluorobenzamide]
MIC [1]: 0.06 µg/mL (≈ 0.126 µM) | MIC [2]: < 1.01 µg/mL | MIC [3]: 0.06 µg/mL (≈ 0.126 µM)

NC(=O)c1c(F)ccc(OCc2nc(-c3ccc(Cl)cc3)c(Br)o2)c1F [Compound 104, 3-{[5-bromo-4-(4-chlorophenyl)-1,3-oxazol-2-yl]methoxy}-2,6-difluorobenzamide]
MIC [1]: 0.12 µg/mL (≈ 0.27 µM) | MIC [2]: < 1.01 µg/mL | MIC [3]: 0.12 µg/mL (≈ 0.27 µM)

NC(=O)c1c(F)ccc(OCCCOc2ccc(OC(F)(F)F)cc2)c1F [Compound 126, 2,6-difluoro-3-{3-[4-(trifluoromethoxy)phenoxy]propoxy}benzamide]
MIC [1]: 0.5 µg/mL (≈ 1.28 µM) | MIC [2]: < 1.01 µg/mL | MIC [3]: 0.5 µg/mL (≈ 1.28 µM)

NC(=O)c1c(F)ccc(OCCCCCc2ccc(C(F)(F)F)cc2)c1F [Compound 155, 2,6-difluoro-3-({5-[4-(trifluoromethyl)phenyl]pentyl}oxy)benzamide]
MIC [1]: 0.12 µg/mL (≈ 0.31 µM) | MIC [2]: < 1.01 µg/mL | MIC [3]: 0.12 µg/mL (≈ 0.31 µM)

NC(=O)c1c(F)ccc(OCc2nc(-c3ccc(OC(F)(F)F)cc3)c(C(F)(F)F)o2)c1F [Compound 213, 2,6-difluoro-3-({4-[4-(trifluoromethoxy)phenyl]-5-(trifluoromethyl)-1,3-oxazol-2-yl}methoxy)benzamide]
MIC [1]: 0.12 µg/mL (≈ 0.249 µM) | MIC [2]: < 1.01 µg/mL | MIC [3]: 0.25 µg/mL (≈ 0.518 µM)

COc1ccc(-c2csc(COc3ccc(F)c(C(N)=O)c3F)n2)cc1 [Compound 10, 2,6-difluoro-3-{[4-(4-methoxyphenyl)-1,3-thiazol-2-yl]methoxy}benzamide]
MIC [1]: 4 µg/mL (≈ 10.6 µM) | MIC [2]: 1 to 4 µg/mL (≈ 2.66 to 10.6 µM) | MIC [3]: 2 µg/mL (≈ 5.31 µM)

NC(=O)c1c(F)ccc(OCc2nc(-c3ccc(S(F)(F)(F)(F)F)cc3)ns2)c1F [Compound 110, 2,6-difluoro-3-({3-[4-(pentafluoro-lambda~6~- sulfanyl)phenyl]-1,2,4-thiadiazol-5-yl}methoxy)benzamide]
MIC [1]: 0.06 µg/mL (≈ 0.127 µM) | MIC [2]: < 1.01 µg/mL | MIC [3]: 0.06 µg/mL (≈ 0.127 µM)

NC(=O)c1c(F)ccc(OCC#CCOc2ccc(OC(F)(F)F)cc2)c1F [Compound 160, 2,6-difluoro-3-({4-[4-(trifluoromethoxy)phenoxy]but-2-yn-1-yl}oxy)benzamide]
MIC [1]: 0.25 µg/mL (≈ 0.623 µM) | MIC [2]: < 1.01 µg/mL | MIC [3]: 0.25 µg/mL (≈ 0.623 µM)

COc1ncc(-c2csc(COc3ccc(F)c(C(N)=O)c3F)n2)s1 [Compound 207, 2,6-difluoro-3-[(2′-methoxy-4,5′-bi-1,3-thiazol-2-yl)methoxy]benzamide]
MIC [1]: 4 µg/mL (≈ 10.4 µM) | MIC [2]: 1 to 4 µg/mL (≈ 2.61 to 10.4 µM) | MIC [3]: 4 µg/mL (≈ 10.4 µM)

NC(=O)c1c(F)ccc(OCc2cccc(-c3ccc(Cl)cc3)n2)c1F [Compound 194, 3-{[6-(4-chlorophenyl)pyridin-2-yl]methoxy}-2,6-difluorobenzamide]
MIC [1]: 0.5 µg/mL (≈ 1.33 µM) | MIC [2]: < 1.01 µg/mL | MIC [3]: 0.5 µg/mL (≈ 1.33 µM)

NC(=O)c1c(F)ccc(OCCCCCOc2ccc(Cl)cc2)c1F [Compound 130, 3-{[5-(4-chlorophenoxy)pentyl]oxy}-2,6-difluorobenzamide]
MIC [1]: 0.5 µg/mL (≈ 1.35 µM) | MIC [2]: < 1.01 µg/mL | MIC [3]: 0.5 µg/mL (≈ 1.35 µM)

NC(=O)c1c(F)ccc(OCCCCOc2ccc(Cl)cc2)c1F [Compound 127, 3-[4-(4-chlorophenoxy)butoxy]-2,6-difluoro-benzamide]
MIC [1]: 0.25 µg/mL (≈ 0.703 µM) | MIC [2]: < 1.01 µg/mL | MIC [3]: 0.25 µg/mL (≈ 0.703 µM)
